In article PMC3658274, “Characterization of drug-induced transcriptional modules: towards drug repositioning and functional understanding” (Molecular Systems Biology, 2013):

Key:
HL60 = experiment: cells; set-up: Cell viability, Alamar Blue fluorescence; details: Homo sapiens, HL-60, 72 h
Protocol: (§1) HL60 (CPQ-054) was cultured as suspension cells in RPMI-1640 containing 10% FCS and penicillin/streptomycin. MCF7 (CPQ-072) cells were cultured as adherent cells in DMEM containing 10% FCS and penicillin/streptomycin. Cells were cultured at 37 °C in an atmosphere of 5% (HL60) or 10% (MCF7) CO2. For the assays, cells (5000 cells/well) were seeded in 150 μl medium on a 96-well cell culture plate and incubated overnight at 37 °C. The next day, cells were treated with different concentrations of selected chemicals from CMap. After 72 h, the viability of treated cells was measured after incubation for 4 h with the indicator dye Alamar Blue and fluorescence measurement at 590 nm. The single concentration of mephentermine (50 μM) was tested in quadruplicates. The IC50 curves for the predicted compounds (sulconazole, vinburnine) and their corresponding negative controls (butoconazole, moxisylyte hydrochloride) were prepared in eight semilog dilutions starting at 1E-5M and tested in duplicates. The reference compound staurosporine was prepared in eight decalog dilutions starting at 1E-5M. Standard solvent controls were performed using 0.1% DMSO. Treatment of cells with 0.1% DMSO and 1E-5M staurosporine served as high control (100% viability) and low control (0% viability), respectively. Raw data were converted into percent viability relative to high controls (solvent 0.1% DMSO) and low controls (1E-05M staurosporine), which were set to 100 and 0%, respectively. IC50 values were calculated using R package ‘drc’ ([Ritz and Streibig, 2005]) by fitting dose response data to a two-parametric log-logistic function with 0% growth as bottom constraint and 100% growth as top constraint. For cell cycle analysis, HL60 cells (ATCC CCL-240) were grown for 6 h with an initial concentration of 0.4 Mio/ml in 3 ml of medium before sulconazole (25 μM) and vinburnine (25 μM) (nocodazole, 200ng/ml as reference) were added. For three time points (24, 48 and 72 h), (un)treated cells were collected, fixed in 80% methanol for 24 h and further rehydrated in PBS/1%FCS at room temperature for 30 min before RNAse A (100 μg/ml) and PI (50 μg/ml) treatment. FACS (FACSCalibur, BD Biosciences) was empl

MCF7 = experiment: cells; set-up: Cell viability, Alamar Blue fluorescence; details: Homo sapiens, MCF7, 72 h
Protocol: as §1

[1] = target: T1, ADRA2C (α-2 adrenergic receptor) (Homo sapiens, UniProt P18825); experiment: biochemical; set-up: Cerep in vitro receptor binding assay (agonist ligand), per cent inhibition at 50 uM and Ki by Cheng-Prusoff; details: read-out: % inhibition
T1 sequence (P18825 1-462): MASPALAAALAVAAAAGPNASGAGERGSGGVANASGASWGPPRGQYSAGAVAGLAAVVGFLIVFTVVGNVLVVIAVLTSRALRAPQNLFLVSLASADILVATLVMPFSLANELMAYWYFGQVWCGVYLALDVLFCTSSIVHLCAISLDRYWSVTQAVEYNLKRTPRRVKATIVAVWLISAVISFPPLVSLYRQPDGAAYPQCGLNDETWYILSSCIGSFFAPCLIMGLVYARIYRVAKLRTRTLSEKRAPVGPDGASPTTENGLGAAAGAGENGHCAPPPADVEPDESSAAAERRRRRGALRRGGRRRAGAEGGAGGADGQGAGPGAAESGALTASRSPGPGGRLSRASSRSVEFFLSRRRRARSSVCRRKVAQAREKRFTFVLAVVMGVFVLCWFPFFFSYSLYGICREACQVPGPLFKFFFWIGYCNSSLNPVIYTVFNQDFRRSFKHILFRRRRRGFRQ
Protocol: (§2) In vitro binding assays were performed by the company Cerep for α-2 adrenergic receptor (agonist, ref. 3443), estrogen receptor-α(ERα, agonist, ref. 0484) and PPARγ (agonist, ref. 0641). Similarly, Cerep carried out the cellular assays of 2C-1 adrenergic receptor (α1B, agonist effect, ref. 1901) and ERα (antagonistic effect, ref. 3495). […] The effect of chemicals were initially evaluated at 50 μM, and Ki values were further determined for chemicals with more than 40% activity in initial assessment. As explained above, R package ‘drc’ ([Ritz and Streibig, 2005]) was utilized to calculate IC50 values using a two-parametric log-logistic function with 0% as minimum and 100% as maximum. Ki values were generated from the IC50 values using Cheng–Prusoff equation.

ADRA1B = target: T2, ADRA1B (Homo sapiens, UniProt P35368); experiment: cell-based; set-up: Cerep cellular alpha1B adrenergic receptor agonist effect assay (ref. 1901); details: read-out: Agonist
T2 sequence (P35368 1-520): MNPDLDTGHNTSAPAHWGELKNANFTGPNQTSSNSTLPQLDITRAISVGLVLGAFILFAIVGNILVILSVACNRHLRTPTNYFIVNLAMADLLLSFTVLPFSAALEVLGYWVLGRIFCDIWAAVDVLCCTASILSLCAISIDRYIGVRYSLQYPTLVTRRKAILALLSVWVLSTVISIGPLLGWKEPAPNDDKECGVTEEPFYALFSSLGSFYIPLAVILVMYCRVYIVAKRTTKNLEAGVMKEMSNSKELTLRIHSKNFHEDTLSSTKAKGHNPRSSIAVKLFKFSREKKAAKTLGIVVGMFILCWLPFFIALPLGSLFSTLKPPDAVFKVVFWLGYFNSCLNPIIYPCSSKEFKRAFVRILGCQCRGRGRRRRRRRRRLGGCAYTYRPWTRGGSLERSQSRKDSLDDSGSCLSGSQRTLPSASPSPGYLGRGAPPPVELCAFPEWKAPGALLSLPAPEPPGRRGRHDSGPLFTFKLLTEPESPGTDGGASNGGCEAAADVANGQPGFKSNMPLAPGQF
Protocol: as §2

[2] = target: T3, PPARγ (peroxisome proliferator-activated receptor subtype-γ) (Homo sapiens, UniProt P37231); experiment: biochemical; set-up: Cerep in vitro receptor binding assay (agonist ligand), per cent inhibition at 50 uM and Ki by Cheng-Prusoff; details: read-out: % inhibition
T3 construct: gene PPARG
T3 sequence (P37231 1-505): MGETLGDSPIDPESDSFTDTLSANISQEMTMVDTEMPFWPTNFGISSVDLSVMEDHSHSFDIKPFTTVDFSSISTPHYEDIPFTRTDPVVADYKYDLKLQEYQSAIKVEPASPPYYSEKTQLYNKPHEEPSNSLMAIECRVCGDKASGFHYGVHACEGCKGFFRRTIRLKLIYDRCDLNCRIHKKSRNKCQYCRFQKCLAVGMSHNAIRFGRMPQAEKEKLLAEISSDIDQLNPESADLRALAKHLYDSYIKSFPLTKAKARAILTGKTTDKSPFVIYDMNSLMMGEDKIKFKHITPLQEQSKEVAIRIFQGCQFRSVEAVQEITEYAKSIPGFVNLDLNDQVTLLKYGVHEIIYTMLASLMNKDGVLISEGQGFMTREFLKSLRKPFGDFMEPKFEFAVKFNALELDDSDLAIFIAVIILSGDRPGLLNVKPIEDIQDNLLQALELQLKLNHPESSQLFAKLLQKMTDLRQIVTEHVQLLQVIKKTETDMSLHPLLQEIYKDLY
Protocol: as §2

[3] = target: T4, estrogen receptor-α (ERα) (Homo sapiens, UniProt P03372); experiment: in vitro binding assay (Cerep, agonist, ref. […]), Ki from IC50 by Cheng-Prusoff; authors call it ambiguous
T4 construct: gene ESR1

[4] = target: T5, estrogen receptor-α (ERα) (Homo sapiens, UniProt P03372); experiment: biochemical; set-up: Cerep in vitro receptor binding assay (agonist ligand), per cent inhibition at 50 uM and Ki by Cheng-Prusoff; details: read-out: % inhibition
T5 construct: gene ESR1
T5 sequence (P03372 1-595): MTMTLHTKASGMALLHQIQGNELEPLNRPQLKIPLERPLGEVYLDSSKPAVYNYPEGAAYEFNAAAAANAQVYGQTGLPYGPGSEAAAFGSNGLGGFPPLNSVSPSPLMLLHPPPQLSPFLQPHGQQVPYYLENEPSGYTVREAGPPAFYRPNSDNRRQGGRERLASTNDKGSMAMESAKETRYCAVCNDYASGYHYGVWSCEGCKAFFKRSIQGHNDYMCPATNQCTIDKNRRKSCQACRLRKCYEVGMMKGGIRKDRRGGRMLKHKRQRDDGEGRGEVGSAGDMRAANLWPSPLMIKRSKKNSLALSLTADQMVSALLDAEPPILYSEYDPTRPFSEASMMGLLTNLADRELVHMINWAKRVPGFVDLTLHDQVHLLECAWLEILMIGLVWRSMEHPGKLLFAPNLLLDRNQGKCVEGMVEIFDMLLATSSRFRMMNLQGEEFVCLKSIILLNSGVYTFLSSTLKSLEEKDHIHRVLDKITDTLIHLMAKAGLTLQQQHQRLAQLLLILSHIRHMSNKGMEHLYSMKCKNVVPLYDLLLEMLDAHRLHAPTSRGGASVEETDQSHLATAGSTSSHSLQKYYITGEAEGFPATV

[5] = target: T5, estrogen receptor-α (ERα); experiment: cell-based; set-up: Cerep cellular ER alpha antagonist effect assay (ref. 3495); details: read-out: Antag./Inhibitor
Protocol: as §2

[6] = target: T3, PPARγ (peroxisome proliferator-activated receptor subtype-γ); experiment: in vitro binding assay (Cerep, agonist, ref. […]), Ki from IC50 by Cheng-Prusoff

Question: What does the source list for `Clc1ccc(CCC(Cn2ccnc2)Sc2c(Cl)cccc2Cl)cc1` (stereo not shown) [Butoconazole]?
Answer: IC50 (HL60): 3.9 µM; IC50 (MCF7): 23 µM

Question: `CCCCC(CC)CN1CN(CC(CC)CCCC)CC(C)(N)C1` (stereo not shown) [hexetidine] was tested. Which inhibition at 50 µM [1] did it give?
Answer: 59%

Question: And the activity at 50 µM (ADRA1B)?
Answer: < 20%

Question: With `COc1cc([C@@H]2c3cc4c(cc3[C@H](O)[C@H]3COC(=O)[C@H]23)OCO4)cc(OC)c1OC` [Podophyllotoxin] as the molecule, how does the inhibition at 50 µM [1] read?
Answer: < 20%

Question: And the activity at 50 µM (ADRA1B)?
Answer: < 20%

Question: `COC(=O)C1=CO[C@@H](C)[C@H]2CN3CCc4c([nH]c5ccccc45)[C@@H]3C[C@H]12` [Raubasine] was tested. Which inhibition at 50 µM [2] did it give?
Answer: < 20%

Question: For `C=CC(N)CCC(=O)O` (stereo not shown) [Vigabatrin], which inhibition at 50 µM [1] is on record?
Answer: < 20%

Question: And the activity at 50 µM (ADRA1B)?
Answer: < 20%

Question: For `CCOC(=O)C1=C(C)NC(C)=C(C(=O)OC)C1c1cccc([N+](=O)[O-])c1` (stereo not shown) [nitrendipine], which Ki [3] is on record?
Answer: ~46 µM

Question: What about the inhibition at 50 µM [4] of the same molecule?
Answer: 49%

Question: For `COc1cc(C(=O)OCCCN2CCCN(CCCOC(=O)c3cc(OC)c(OC)c(OC)c3)CC2)cc(OC)c1OC` [Dilazep], which inhibition at 50 µM [5] is on record?
Answer: 26.3%

Question: How did the IC50 (HL60) turn out when `CC(=O)Oc1cc(C(C)C)c(OCCN(C)C)cc1C` [Moxisylyte] was run?
Answer: > 50 µM

Question: And the IC50 (MCF7)?
Answer: > 50 µM

Question: `CCCOc1ccccc1-c1nc2nn[nH]c2c(=O)[nH]1` [zaprinast] was tested. Which Ki [6] did it give?
Answer: 14 µM

Question: What about the inhibition at 50 µM [2] of the same molecule?
Answer: 57%
